Literature values as cited in patent US11167065B2 (EUROCOR TECH GMBH, priority 2009, dated 2021).
Like-named read-outs stand apart in the source and are kept apart here.

## CC(=O)O[C@H]1C(=O)[C@@]2(C)[C@H]([C@H](OC(=O)c3ccccc3)[C@]3(O)C[C@H](OC(=O)[C@H](O)[C@@H](NC(=O)c4ccccc4)c4ccccc4)C(C)=C1C3(C)C)[C@]1(OC(C)=O)CO[C@@H]1C[C@@H]2O (relative stereo) [Paclitaxel, [2aR-[2a,4,4a,6,9(R*,S*),11,12,12a,12b]]-(benzoylamino)-hydroxybenzene propionic acid 6,12b-bis-(acetyloxy)-12-(benzoyloxy)-2a-3,4,4a, 5,6,9, 10, 11, 12, 12a, 12b-dodecahydro-4,11-dihydroxy-4a,8,13,13-tetramethyl-5-oxo-7,11-methano-1H-cyclodeca[3,4]benz[1,2-b]oxet-9-yl ester)]
In dimethyl sulfoxide (DMSO), methanol, anhydrous ethanol
  Solubility: highly soluble
In water
  Solubility: comparatively poorly soluble
